Tested on: HIV-1
Assay: Trough LEN concentration associated with antiviral activity (inhibitory quotient-4)
Settings: IQ4 threshold / efficacy target
Excerpt: Lenacapavir (LEN) is currently approved for the treatment of multidrug-resistant HIV-1 infection in combination with other antiretrovirals for heavily treatment-experienced (HTE) individuals. […] Given the importance of oral loading doses in achieving and maintaining concentrations >IQ4, options to make up for missed oral loading doses were considered. A population-pharmacokinetic (PopPK) model was utilized to simulate various dosing scenarios to guide missed oral loading-dose recommendations for the HTE population.

CC(C)(C#Cc1ccc(-c2ccc(Cl)c3c(NS(C)(=O)=O)nn(CC(F)(F)F)c23)c([C@H](Cc2cc(F)cc(F)c2)NC(=O)Cn2nc(C(F)(F)F)c3c2C(F)(F)[C@@H]2C[C@H]32)n1)S(C)(=O)=O [LEN, N-((S)-1-(3-(4-chloro-3-(methylsulfonamido)-1-(2,2,2-trifluoroethyl)-1H-indazol-7-yl)-6-(3-methyl-3-(methylsulfonyl)but-1-yn-1-yl)pyridin-2-yl)-2-(3,5-difluorophenyl)ethyl)-2-((3bS,4aR)-5,5-difluoro-3-(trifluoromethyl)-3b,4,4a,5-tetrahydro-1H-cyclopropa [3,4]cyclopenta [1,2-c]pyrazol-1-yl) acetamide]
mean trough LEN concentration associated with high antiviral activity (inhibitory quotient-4 [IQ4]): 15.5 ng/mL
